According to US20140249135A1, “PIM KINASE INHIBITORS AND METHODS OF THEIR USE” (NOVARTIS AG, priority 2007, published 2014):
Read-outs that look alike come from different tables or passages of the source.

Assays:
Pim1 kinase = Pim1 kinase (Homo sapiens, UniProt P11309); test: Pim1 ATP depletion assay; type: biochemical; conditions: Pim1 ATP depletion assay;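 note: Luciferase-luciferin luminescence readout of residual ATP after PIM1 transfers phosphate to a peptide substrate, 40 µM ATP added, reaction run to roughly half ATP consumption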
HEL 92.1.7 cells = test: Cell proliferation assay (CellTiter-Glo), HEL 92.1.7; type: cell-based; conditions: Homo sapiens
Method in brief: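 Cells in RPMI1640 with 10% FBS were seeded at 1000 cells/well and exposed to compound dilutions from DMSO stocks for 3 days at 37 °C. Viability was read by CellTiter-Glo luminescence. EC50 was derived from percent inhibition relative to DMSO-only and control-compound wells.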

Pim2 kinase = Pim2 kinase (Homo sapiens, UniProt Q9P1W9); test: Pim2 ATP depletion assay; type: biochemical;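 note: Luciferase-based luminescent readout of ATP remaining after PIM2 phosphorylates a BAD peptide, final 5 nM enzyme, 4 µM ATP, 10 µM peptide, 2.5% DMSO, run to roughly half ATP consumption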
[1] = molecular target: T1, human full length PKCE enzyme (Homo sapiens, UniProt Q02156); test: In vitro PKCE assay; type: biochemical; conditions: 10 nM enzyme, 40 uM peptide substrate, 20 uM ATP, KinaseGlo Plus readout; read-out: PKCε IC50
T1 construct: human full length PKCE enzyme purchased from InVitrogen; purchased InVitrogen
T1 sequence (Q02156 1-737): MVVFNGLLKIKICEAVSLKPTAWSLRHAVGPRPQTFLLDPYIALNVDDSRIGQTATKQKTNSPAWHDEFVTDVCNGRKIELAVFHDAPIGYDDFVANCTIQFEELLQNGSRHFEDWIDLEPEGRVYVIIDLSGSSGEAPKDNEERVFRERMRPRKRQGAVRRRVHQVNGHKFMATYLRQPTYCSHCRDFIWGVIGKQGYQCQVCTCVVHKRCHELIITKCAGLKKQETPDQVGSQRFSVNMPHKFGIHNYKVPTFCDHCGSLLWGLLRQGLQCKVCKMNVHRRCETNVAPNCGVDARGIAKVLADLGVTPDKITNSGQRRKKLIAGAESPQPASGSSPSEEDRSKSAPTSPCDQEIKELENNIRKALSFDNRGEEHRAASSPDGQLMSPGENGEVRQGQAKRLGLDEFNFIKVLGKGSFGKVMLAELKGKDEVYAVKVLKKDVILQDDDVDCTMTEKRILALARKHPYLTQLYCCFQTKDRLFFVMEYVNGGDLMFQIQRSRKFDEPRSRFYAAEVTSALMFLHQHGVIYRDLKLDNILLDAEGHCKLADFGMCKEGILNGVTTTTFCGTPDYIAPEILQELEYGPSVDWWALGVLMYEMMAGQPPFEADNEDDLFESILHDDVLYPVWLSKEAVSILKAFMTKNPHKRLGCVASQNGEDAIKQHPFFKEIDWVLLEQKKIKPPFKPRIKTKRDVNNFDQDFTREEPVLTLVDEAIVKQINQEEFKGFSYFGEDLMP

Pim3 kinase = Pim3 kinase (Homo sapiens, UniProt Q86V86); test: Pim3 ATP depletion assay; type: biochemical

Pim2 kinase, sequence (Q9P1W9 whole entry): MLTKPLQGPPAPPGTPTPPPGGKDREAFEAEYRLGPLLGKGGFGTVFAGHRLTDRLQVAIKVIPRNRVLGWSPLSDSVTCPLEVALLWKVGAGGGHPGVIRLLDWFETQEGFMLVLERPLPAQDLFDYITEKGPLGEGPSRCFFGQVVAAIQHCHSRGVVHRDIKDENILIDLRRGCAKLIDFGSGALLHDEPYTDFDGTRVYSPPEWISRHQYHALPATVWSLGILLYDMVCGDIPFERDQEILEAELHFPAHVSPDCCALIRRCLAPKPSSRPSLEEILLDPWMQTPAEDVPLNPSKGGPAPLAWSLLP
Pim1 kinase, sequence (P11309 whole entry): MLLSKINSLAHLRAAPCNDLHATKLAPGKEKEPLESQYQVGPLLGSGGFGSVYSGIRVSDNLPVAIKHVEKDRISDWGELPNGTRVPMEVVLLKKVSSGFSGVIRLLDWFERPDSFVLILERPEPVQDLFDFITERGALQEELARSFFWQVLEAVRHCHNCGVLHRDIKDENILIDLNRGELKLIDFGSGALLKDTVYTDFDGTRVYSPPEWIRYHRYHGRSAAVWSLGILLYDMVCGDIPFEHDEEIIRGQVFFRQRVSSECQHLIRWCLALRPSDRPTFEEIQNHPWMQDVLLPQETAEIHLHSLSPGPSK

IC50 (Pim1 kinase; read-out: IC50 (μM) PIM1) [µM] | IC50 (Pim2 kinase; read-out: IC50 (μM) PIM2) [µM] | IC50 [1] [nM] | IC50 (Pim3 kinase; read-out: IC50 (μM) PIM3) [µM] | IC50 (Pim1 kinase; read-out: PIM1 IC50) [µM] | IC50 (Pim2 kinase; read-out: PIM2 IC50) [µM] | IC50 (Pim3 kinase; read-out: PIM3 IC50) [µM] | Structure (SMILES) | EC50 (HEL 92.1.7 cells; read-out: EC50 (μM) HEL 92.1.7) [µM] | EC50 (HEL 92.1.7 cells; read-out: HEL 92.1.7 EC50) [µM]
< 1 | < 1 | 1000 to 10000 | < 1 | – | – | – | Nc1ncc(-c2ccccc2Cl)nc1C(=O)Nc1[nH]c(=O)ncc1N1CCCC(N)C1 (stereo not drawn) [Example 402, 3-amino-6-(2-chloro-phenyl)-pyrazine-2-carboxylic acid [5-(3-amino-piperidin-1-yl)-2-oxo-2,3-dihydro-pyrimidin-4-yl]-amide] | 5 to 10 | –
< 1 | < 1 | < 1000 | < 1 | – | – | – | Nc1ncc(Br)nc1C(=O)Nc1[nH]c(=O)ncc1N1CCCC(N)C1 (stereo not drawn) [Example 239, 3-amino-N-[5-(3-aminopiperidin-1-yl)-2-oxo-2,3-dihydro-pyrimidin-4-yl]-6-bromo-pyrazine-2-carboxamide] | > 10 | –
< 1 | < 1 | > 25000 | < 1 | – | – | – | Nc1ncc(Br)nc1C(=O)Nc1[nH]c(=O)ncc1N1CCC(F)(F)CC1 [Example 157, 3-amino-6-bromo-N-[5-(4,4-difluoropiperidin-1-yl)-2-oxo-2,3-dihydropyrimidin-4-yl]-pyrazine-2-carboxamide] | > 10 | –
< 1 | < 1 | 10000 to 25000 | < 1 | – | – | – | COc1ccc(F)cc1-c1ccc(N)c(C(=O)Nc2cnccc2N2CCC[C@H](N)C2)n1 [Example 427, 3-amino-6-(5-fluoro-2-methoxy-phenyl)-pyridine-2-carboxylic acid ((S)-3-amino-3,4,5,6-tetra-hydro-2H-[1,4′]bipyridinyl-3′-yl)-amide] | 1 to 5 | –
< 1 | < 1 | 1000 to 10000 | < 1 | – | – | – | COc1ccccc1-c1cnc(N)c(C(=O)Nc2cnccc2N2CCCC(N)C2)n1 (stereo not drawn) [Example 349, 3-amino-6-(2-methoxy-phenyl)-pyrazine-2-carboxylic acid (3-amino-3,4,5,6-tetra-hydro-2H-[1,4′]bipyridinyl-3′-yl)-amide] | < 1 | –
< 1 | < 1 | < 1000 | < 1 | – | – | – | Nc1ncc(-c2cccc(Cl)c2)nc1C(=O)Nc1cnccc1N1CCCC(N)C1 (stereo not drawn) [Example 352, 3-amino-6-(3-chloro-phenyl)-pyrazine-2-carboxylic acid (3-amino-3,4,5,6-tetrahydro-2H-[1,4′]bipyridinyl-3′-yl)-amide] | < 1 | –
< 1 | < 1 | 1000 to 10000 | < 1 | – | – | – | Nc1ncc(Br)nc1C(=O)Nc1[nH]c(=O)ncc1N1CCC(F)CC1 [Example 150, 3-amino-6-bromo-N-[5-(4-fluoropiperidin-1-yl)-2-oxo-2,3-dihydropyrimidin-4-yl]pyrazine-2-carboxamide] | 1 to 5 | –
< 1 | < 1 | < 1000 | < 1 | – | – | – | Nc1ncc(-c2ccccc2OC(F)(F)F)nc1C(=O)Nc1cnccc1N1CCCC(N)C1 (stereo not drawn) [Example 347, 3-amino-6-(2-trifluoro-methoxy-phenyl)-pyrazine-2-carboxylic acid (3-amino-3,4,5,6-tetrahydro-2H-[1,4′]bi-pyridinyl-3′-yl)-amide] | < 1 | –
– | – | 1000 to 10000 | – | < 1 | < 1 | < 1 | Nc1ncc(-c2ccccc2F)nc1C(=O)Nc1[nH]c(=O)ncc1N1CCCCC1 [Example 592, 3-amino-6-(2-fluoro-phenyl)-pyrazine-2-carboxylic acid (2-oxo-5-piperidin-1-yl-2,3-dihydro-pyrimidin-4-yl)-amide] | – | < 1

Second part, the compound before the results:

Structure (SMILES) | IC50 (Pim1 kinase; read-out: IC50 (μM) PIM1) [µM] | IC50 (Pim2 kinase; read-out: IC50 (μM) PIM2) [µM] | IC50 [1] [nM] | IC50 (Pim3 kinase; read-out: IC50 (μM) PIM3) [µM] | IC50 (Pim1 kinase; read-out: PIM1 IC50) [µM] | IC50 (Pim2 kinase; read-out: PIM2 IC50) [µM] | IC50 (Pim3 kinase; read-out: PIM3 IC50) [µM] | EC50 (HEL 92.1.7 cells; read-out: EC50 (μM) HEL 92.1.7) [µM] | EC50 (HEL 92.1.7 cells; read-out: HEL 92.1.7 EC50) [µM]
Nc1ncc(-c2cccnc2)nc1C(=O)Nc1cnccc1N1CCCC(N)C1 (stereo not drawn) [Example 356, 3-amino-6-pyridin-3-yl-pyrazine-2-carboxylic acid (3-amino-3,4,5,6-tetrahydro-2H-[1,4′]bipyridinyl-3′-yl)-amide] | < 1 | < 1 | 1000 to 10000 | < 1 | – | – | – | > 10 | –
NCC1CCCN(c2ccncc2NC(=O)c2nc(Br)cnc2N)C1 (stereo not drawn) [Example 180, 3-amino-N-{4-[3-(amino-methyl)piperidin-1-yl]pyridin-3-yl}-6-bromopyrazine-2-carboxamide] | < 1 | < 1 | < 1000 | < 1 | – | – | – | < 1 | –
Nc1nc(N)c(C(=O)Nc2[nH]c(=O)ncc2N2CCC(F)CC2)nc1Cl [Example 151, 3,5-diamino-6-chloro-N-[5-(4-fluoropiperidin-1-yl)-2-oxo-2,3-dihydropyrimidin-4-yl]pyrazine-2-carboxamide] | < 1 | < 1 | > 25000 | < 1 | – | – | – | > 10 | –
Nc1ncc(Br)nc1C(=O)Nc1[nH]c(=O)ncc1N1CCCC(F)C1 (stereo not drawn) [Example 155, 3-amino-6-bromo-N-[5-(3-fluoropiperidin-1-yl)-2-oxo-2,3-dihydropyrimidin-4-yl]pyrazine-2-carboxamide] | < 1 | < 1 | 1000 to 10000 | < 1 | – | – | – | 5 to 10 | –
Nc1ncc(-c2ccccc2Cl)nc1C(=O)Nc1cnccc1N1CCCC(N)C1 (stereo not drawn) [Example 346, 3-amino-6-(2-chloro-phenyl)-pyrazine-2-carboxylic acid (3-amino-3,4,5,6-tetrahydro-2H-[1,4′]bipyridinyl-3′-yl)-amide] | < 1 | < 1 | < 1000 | < 1 | – | – | – | < 1 | –
Nc1ncc(-c2cncnc2)nc1C(=O)Nc1cnccc1N1CCCC(N)C1 (stereo not drawn) [Example 357, 3-amino-6-pyrimidin-5-yl-pyrazine-2-carboxylic acid (3-amino-3,4,5,6-tetrahydro-2H-[1,4′]bipyridinyl-3′-yl)-amide] | < 1 | < 1 | 1000 to 10000 | < 1 | – | – | – | 1 to 5 | –
Nc1ncc(Br)nc1C(=O)Nc1[nH]c(=O)ncc1-c1cccs1 [Example 142, 3-amino-6-bromo-N-[2-oxo-5-(2-thienyl)-2,3-dihydro-pyrimidin-4-yl]pyrazine-2-carboxamide] | < 1 | < 1 | 1000 to 10000 | < 1 | – | – | – | 1 to 5 | –
Nc1ncc(-c2ccc(Cl)cc2)nc1C(=O)Nc1cnccc1N1CCCC(N)C1 (stereo not drawn) [Example 353, 3-amino-6-(4-chloro-phenyl)-pyrazine-2-carboxylic acid (3-amino-3,4,5,6-tetrahydro-2H-[1,4′]bipyridinyl-3′-yl)-amide] | < 1 | < 1 | < 1000 | < 1 | – | – | – | < 1 | –
Nc1ncc(Br)nc1C(=O)Nc1[nH]c(=O)ncc1N1CCCC(C(F)(F)F)C1 (stereo not drawn) [Example 147, 3-amino-6-bromo-N-{2-oxo-5-[3-(trifluoromethyl)piperidin-1-yl]-2,3-dihydropyrimidin-4-yl}-pyrazine-2-carboxamide] | < 1 | < 1 | < 1000 | < 1 | – | – | – | 5 to 10 | –
Nc1nc(N)c(C(=O)Nc2[nH]c(=O)ncc2N2CCCC(F)C2)nc1Cl (stereo not drawn) [Example 160, 3,5-diamino-6-chloro-N-[5-(3-fluoropiperidin-1-yl)-2-oxo-2,3-dihydropyrimidin-4-yl]pyrazine-2-carboxamide] | < 1 | < 1 | > 25000 | < 1 | – | – | – | > 10 | –
Nc1ncc(-c2cn[nH]c2)nc1C(=O)Nc1cnccc1N1CCCC(N)C1 (stereo not drawn) [Example 355, 3-amino-6-(1H-pyrazol-4-yl)-pyrazine-2-carboxylic acid (3-amino-3,4,5,6-tetrahydro-2H-[1,4′]bipyridinyl-3′-yl)-amide] | < 1 | < 1 | 1000 to 10000 | < 1 | – | – | – | > 10 | –
Nc1ncc(-c2ccccc2F)nc1C(=O)Nc1[nH]c(=O)ncc1N1CCCC(N)C1 (stereo not drawn) [Example 401, 3-amino-6-(2-fluoro-phenyl)-pyrazine-2-carboxylic acid [5-(3-amino-piperidin-1-yl)-2-oxo-2,3-dihydro-pyrimidin-4-yl]-amide] | < 1 | < 1 | < 1000 | < 1 | – | – | – | 5 to 10 | –
